Test [1] has as its target K-ras G12D (Homo sapiens, UniProt P01116, G12D). Description: G-LISA Ras activation assay, 293H cells transfected with G12D mutant. Type of test: cell-based. The settings on record: 1 hour treatment; for IC50: Table 1, G-LISA, 293H transfected, read-out: IC50 (μM) G12D; for pIC50: Table 5, IC50, 293H transfected, read-out: G-LISA (G12D). As for the experimental part: (§1) 293H cells were seeded in 6-wells at 0.6×10^6 cells per well and transfected next day with 5 μg of Ras wild-type, or G12C, G12D or G12V mutant DNA plasmid vector using transfection reagent Lipofectamine 3000. Next day cells were treated with 3.125-50 μM of Ras compounds for 1 hour. Wild-type transfected cells were subsequently treated with 100 ng/ml EGF for 2 minutes. Cells were washed once in ice-cold PBS, lysed in complete lysis buffer on ice, and processed by G-LISA according to Cytoskeleton protocol.
(§2) In-cell selectivity of the compounds presented herein against a specific K-ras mutant form can also be tested as shown in the following exemplary experiment. 293H cells were seeded in 6-wells and transfected next day with 5 μg of Ras wild-type, or G12C, G12D or G12V mutant DNA plasmid vector. Next day cells were treated with 3.125-50 μM of Ras compounds for 1 hour. Wild-type transfected cells were subsequently treated with 100 ng/ml EGF for 2 minutes. Cells were washed once in ice-cold PBS, lysed in complete lysis buffer on ice, and processed by G-LISA according to Cytoskeleton protocol. FIG. 1 depicts exemplary results.
as §1, with “In still further experiments, the inventors tested selected compounds in a G-LISA assay to compare IC50 values for wild-type and various mutant K-Ras (G12D, G12V) using the following general protocol: 293H” for “293H”

The target of test [2] is K-Ras wild-type (Homo sapiens, UniProt P01116). The test is described as follows: G-LISA Ras activation assay, 293H cells transfected with Ras wild-type, EGF-stimulated. The settings on record: 1 hour treatment, 100 ng/ml EGF. Type of test: cell-based. As for the experimental part: as §1, §2
as §1, with “In still further experiments, the inventors tested selected compounds in a G-LISA assay to compare IC50 values for wild-type and various mutant K-Ras (G12D, G12V) using the following general protocol: 293H” for “293H”

Test [3] concerns the target K-ras G12V (Homo sapiens, UniProt P01116, G12V). Description: G-LISA Ras activation assay, 293H cells transfected with G12V mutant. Type of test: cell-based. The settings on record: 1 hour treatment; for IC50: Table 1, G-LISA, 293H transfected, read-out: IC50 (μM) G12V; for pIC50: Table 5, IC50, 293H transfected, read-out: G-LISA (G12V). The procedure: as §1, §2
as §1, with “In still further experiments, the inventors tested selected compounds in a G-LISA assay to compare IC50 values for wild-type and various mutant K-Ras (G12D, G12V) using the following general protocol: 293H” for “293H”

For test [4], the target named is K-ras G12V (GTP) (Homo sapiens, UniProt P01116, G12V). Description: SPR assay (surface plasmon resonance). It counts as binding. The settings on record: 25° C., 8% DMSO. As for the experimental part: Selected compounds were also tested for selective binding to wild type and mutant forms of K-ras in the active and non-active state using surface plasmon resonance, and exemplary results are shown in Table 4.
The running buffer in all surface plasmon resonance experiments was 10 mM HEPES pH 7.4, 150 mM NaCl, 0.1% (v/v) Tween-20, 1 mM MgCl2, 8% DMSO. Experiments were carried out on the SensiQ Pioneer optical biosensor. The flow rate was set at 50 μL/min and the temperature was 25° C. kRAS protein was immobilized to the Nickel-NTA charged surface of the SensiQ HisCap chip (sensiqtech.com) giving a yield of 4000 RU. Small molecules were prepared in 100% DMSO and further diluted to 8% DMSO in running buffer. The small molecules were injected using the Taylor diffusion gradient injection mode (OneStep®, see e.g., Evaluation of Taylor dispersion injections: Determining kinetic/affinity interaction constants and diffusion coefficients in label-free biosensing, John G. Quinn, Analytical Biochemistry (2011)). Buffer blanks were injected for double referencing purposes. Data processing and model fitting were performed using Qdat.
For orientation: In SPR one partner is held on a chip, and binding of the other changes the refractive index at the surface.

In test [5] the test system is Akt phosphorylation in Panc10.05 (G12D) cells. Description: In-Cell Western Akt phosphorylation. It counts as cell-based. The settings on record: EC50, one hour treatment; read-out: In-Cell Western Akt phosporylation Panc10.05 (G12D). As for the experimental part:
(§3) In-cell phosphorylation assays for Erk and Akt were performed on various of the compounds and exemplary results are shown in Table 3 below using […] and Panc10.05 cell lines for G12D K-ras mutants.
(§4) Cells are seeded in complete medium into black sided, clear-bottom 384-well microplates at 3000 cells/[…]/well. Plates are returned to 37° C. CO2 incubator for 18 hr. Drug is made as 200× in DMSO and diluted into medium to 10×. To each well is added 4 ul 10× test article or controls, and plates are returned to the incubator. Final assay DMSO concentration is 0.5%. After one hour, cells are fixed in formaldehyde, rinsed & permeabilized with triton X-100, and blocked with BSA/Goat serum blocking solution. Primary phospho-Akt and phospho-ERK antibodies are added and plates are incubated overnight at 4° C. Plates are rinsed with Tween-20 wash buffer and secondary antibody (Goat anti-rabbit, Thermofisher) is added. After 2 hours, plates are rinsed in Tween-20 wash buffer, and then PBS. Plates are imaged on the Celigo (Nexcelom) and cellular fluorescence is quantitated. Full inhibition of phospho-Akt is achieved with 1 uM BEZ235 (Sellekchem), while full inhibition of phospho-ERK is achieved with 1 uM MEK Inhibitor II Calbiochem). EC50 values are calculated using Graphpad Prism.

Test [6] deals with Akt phosphorylation in Panc1 (G12D) cells. Description: In-Cell Western Akt phosphorylation. It counts as cell-based. As to conditions: EC50, one hour treatment; read-out: In-Cell Western Akt phosporylation Panc1 (G12D). The procedure:
as §3, §4

Test [7] has as its system Panc1 (G12D) cells. Description: 72 hr cell viability (CellTiterBlue). Type of test: cell-based. The settings on record: GI50, 72 hr. The procedure: (§5) Viability assays were performed on exemplary compounds and Table 2 below lists exemplary results for selected compounds tested on wild type (Ishikawa) and various K-ras mutants (Panc1-G12D; Panc10.05-G12D; HCT116-G13D).
(§6) Cells are counted and seeded at 1000 cells/36 ul medium/well into 384-well microplates. Cells are returned to 37° C. CO2 incubator for 18 hr. Drug is made as 200× in DMSO and diluted into medium to 10×. To each well is added 4 ul 10× drug, and plates are returned to the incubator. Final assay DMSO concentration is 0.5%. After 72 hr, 8 ul CellTiterBlue (Promega) is added to each well. After 3 hr, fluorescence (Ex550/Em590) is determined on the Victor Plate Reader (Perkin Elmer). Assay range is determined by DMSO control (100% viability) and 100 uM tamoxifen (0% viability). GI50 values are calculated using Graphpad Prism.
A general note: Resazurin is reduced to fluorescent resorufin, in cell work by metabolically active cells.

The subject of test [8] is Ishikawa (K-Ras wild-type) cells. The test is described as follows: 72 hr cell viability (CellTiterBlue). The settings on record: GI50, 72 hr. Type of test: cell-based. As for the experimental part: as §5, §6
For test [9], the system named is Erk phosphorylation in Panc10.05 (G12D) cells. The test is described as follows: In-Cell Western Erk phosphorylation. It counts as cell-based. The settings on record: EC50, one hour treatment; read-out: In-Cell Western Erk phosporylation Panc10.05 (G12D). The procedure: as §3, §4
The test system of test [10] is Erk phosphorylation in Panc1 (G12D) cells. Description: In-Cell Western Erk phosphorylation. It counts as cell-based. The settings on record: EC50, one hour treatment; read-out: In-Cell Western Erk phosporylation Panc1 (G12D). As for the experimental part:
as §3, §4

pEC50, pIC50, pKd: −log10 of the molar value. Where two headings read alike, the source gives them in different places. Bounds are passed on as bounds.

By IC50 is commonly meant the concentration that inhibits the measured activity by half. For orientation: pKd means the negative decadic logarithm of the Kd, by convention in mol/L.

`Cc1nc(C)c(C(=O)Nc2nc(-c3ccc4c(c3)CCC(=O)N4)cs2)s1` [Compound 4662]: in test [1], the IC50 was greater than 25 µM and the pIC50 is less than 4.60.

As for `CC(=O)Nc1ccc(-c2csc(NC(=O)c3sc(C)nc3C)n2)cc1` [Compound 4663], the IC50 in test [2] (Table 1, G-LISA, 293H transfected, read-out: IC50 (μM) Wild-type) was found to be 7 µM; in [1], 15 µM; in test [3] it was 32 µM. Besides, the pIC50 in [2] (Table 5, IC50, 293H transfected, read-out: G-LISA (wild type)) was 5.15; in test [1] it was less than 4.60; in test [3], 4.49. Further, the “SPR Assay G12V (GTP) Kd” value in [4] is on record as “No binding/fit”.

Turning to `Cc1nc(C)c(C(=O)Nc2nc(-c3ccc(NC(=O)c4ccccc4)cc3)cs2)s1` [Compound 4665], in test [1], the IC50 was greater than 25 µM and the pIC50 was less than 4.60.

In the case of `O=C1CCc2cc(-c3csc(NC(=O)c4cnc(C5CC5)s4)n3)ccc2N1` [Compound 4683], in test [1], the IC50 amounted to 12 µM and the pIC50 is 4.92.

Take `O=C1CCc2cc(-c3csc(NC(=O)c4cnc(-c5ccccc5)s4)n3)ccc2N1` [Compound 4684]: in test [1], the IC50 is greater than 25 µM and the pIC50 is less than 4.60.

For `N#Cc1ncc(C(=O)Nc2nc(-c3ccc4c(c3)CCC(=O)N4)cs2)s1` [Compound 4685], in test [1], the IC50 is greater than 25 µM and the pIC50 is less than 4.60.

As for `CC(=O)N1CCCc2cc(-c3csc(NC(=O)c4sc(C)nc4C)n3)ccc21` [Compound 4686], in [1], the IC50 was 11 µM and the pIC50 was 4.96. Moreover, in test [4], the pKd was 4.94 and the “SPR Assay G12V (GTP) Rmax” value was “Rmax = 94.2 ± 0.2”.

For the compound `Cc1nc(C)c(C(=O)Nc2nc(-c3ccc4c(c3)CCC(=O)N4C)cs2)s1` [Compound 4687], in test [1], the IC50 was 19 µM and the pIC50 is 4.72. For the same compound, in [4], the pKd is 5.18 and the “SPR Assay G12V (GTP) Rmax” value is listed as “Rmax = 72.6 ± 0.1”.

On to `O=C1CCc2cc(-c3csc(NC(=O)c4scnc4C4CC4)n3)ccc2N1` [Compound 4735], for which, in test [1], the IC50 is greater than 25 µM and the pIC50 was less than 4.60. Moreover, in test [4], the pKd was 4.37 and the “SPR Assay G12V (GTP) Rmax” value was “Rmax = 203 ± 3”.

In the case of `CCc1ncsc1C(=O)Nc1nc(-c2ccc3c(c2)CCC(=O)N3)cs1` [Compound 4747], in test [1], the IC50 was greater than 25 µM and the pIC50 is less than 4.60. For the same compound, in test [4], the pKd is 5.00 and the “SPR Assay G12V (GTP) Rmax” value was “Rmax = 85.3 ± 0.1”.

For `Cc1nc(C)c(C(=O)Nc2nc(-c3ccc4c(c3)CNC(=O)N4)cs2)s1` [Compound 4748], in test [1], the IC50 was determined as 21 µM and the pIC50 was 4.68.

On to `Cc1nc(C)c(C(=O)Nc2nc(-c3cc4c5c(c3)CCN5C(=O)CC4)cs2)s1` [Compound 4749], for which, in test [1], the IC50 was greater than 25 µM and the pIC50 is 4.44. In addition, in test [4], the pKd was 5.22 and the “SPR Assay G12V (GTP) Rmax” value is on record as “Rmax = 75.9 ± 0.1”.

For `Cc1nc(C)c(C(=O)Nc2nc(-c3ccc4c(c3)CCC(=O)N4)c(C)s2)s1` [Compound 4802], in [1], the IC50 is greater than 25 µM and the pIC50 is 4.57. Moreover, in test [3], the IC50 came to 17 µM and the pIC50 is 4.77.

For `CCc1sc(NC(=O)c2sc(C)nc2C)nc1-c1ccc2c(c1)CCC(=O)N2` [Compound 4803], in test [1], the IC50 was greater than 25 µM and the pIC50 was 4.15.

As to `O=C1CCc2cc(-c3csc(NCc4ccccc4)n3)ccc2N1` [Compound 4824], in test [1], the IC50 is greater than 25 µM and the pIC50 is less than 4.60.

As to `O=C1CCc2cc(-c3csc(NC(=O)c4ccccc4)n3)ccc2N1` [Compound 4825], in [1], the IC50 was greater than 25 µM and the pIC50 is less than 4.60.

Take `O=C1CCc2cc(-c3csc(NC(=O)c4ncccn4)n3)ccc2N1` [Compound 4826]: in [1], the IC50 is greater than 25 µM and the pIC50 is less than 4.60.

In the case of `Cc1nc(C(=O)Nc2nc(-c3ccc4c(c3)CCC(=O)N4)cs2)sc1C` [Compound 4828], in test [1], the IC50 was greater than 25 µM and the pIC50 was less than 4.60.

With `O=C1CCc2cc(-c3csc(Nc4ncccn4)n3)ccc2N1` [Compound 4829], in [1], the IC50 was greater than 25 µM and the pIC50 was less than 4.60.

For the compound `Cc1ccccc1C(=O)Nc1nc(-c2ccc3c(c2)CCC(=O)N3)cs1` [Compound 4874], the pEC50 in test [5] is less than 4.60; in test [6] it was 4.60; in test [9], 4.85; in test [10], less than 4.60. Besides, the figures for the pIC50 in test [7], in [8] and in test [1] were 4.92, 5.52 and 4.80, respectively. Further, the IC50 in [1] was found to be 16 µM.

For `COCc1nc(C)c(C(=O)Nc2nc(-c3ccc4c(c3)CCC(=O)N4)cs2)s1` [Compound 4876], the pEC50 is less than 4.60 in test [5], 4.70 in [6], 4.77 in test [9] and 5.05 in test [10]. In addition, the pIC50 in test [7] was 4.89; in [8] it was 5.52.

With `Cc1nc(-c2ccccc2)sc1C(=O)Nc1nc(-c2ccc3c(c2)CCC(=O)N3)cs1` [Compound 4878], the pEC50 was less than 4.60 in test [5], 4.59 in test [6], 4.89 in [9] and 4.72 in test [10]. For the same compound, the pIC50 was 5.15 in [7], 5.30 in [8], 4.72 in test [1] and less than 4.60 in test [3]. The IC50 in test [1] was 19 µM; in test [3] it was greater than 25 µM.
